By IC50 is commonly meant the point on the concentration scale where inhibition reaches its midpoint. What is called EC50 is the concentration at which the effect is half-maximal. Broadly, the AC50 is the concentration giving half of the maximal activity seen. For orientation: IC90 means the point of the concentration-response curve where the effect stands at 90%.

The values that follow come from ChEMBL document CHEMBL1201862, “PubChem BioAssay data set” (2004).

SMILES strings stand for the structures. Calls of active or inactive are those of the source.

Test [1] in a line: Late stage counterscreen for inhibitors of Trypanosoma brucei methionyl tRNA synthetase (MetRS): Luminescence-based cell-based high throughput dose response assay to identify compounds that are cytotoxic to Jurkat human T lymphocyte cells. In kind it is functional. (In general: A counterscreen serves to expose hits that act by an unwanted route or on another target.)
Test [2] addresses T1, Methionyl-tRNA synthetase, putative (Trypanosoma brucei brucei, UniProt Q38C91).
T1 sequence (Q38C91 whole entry): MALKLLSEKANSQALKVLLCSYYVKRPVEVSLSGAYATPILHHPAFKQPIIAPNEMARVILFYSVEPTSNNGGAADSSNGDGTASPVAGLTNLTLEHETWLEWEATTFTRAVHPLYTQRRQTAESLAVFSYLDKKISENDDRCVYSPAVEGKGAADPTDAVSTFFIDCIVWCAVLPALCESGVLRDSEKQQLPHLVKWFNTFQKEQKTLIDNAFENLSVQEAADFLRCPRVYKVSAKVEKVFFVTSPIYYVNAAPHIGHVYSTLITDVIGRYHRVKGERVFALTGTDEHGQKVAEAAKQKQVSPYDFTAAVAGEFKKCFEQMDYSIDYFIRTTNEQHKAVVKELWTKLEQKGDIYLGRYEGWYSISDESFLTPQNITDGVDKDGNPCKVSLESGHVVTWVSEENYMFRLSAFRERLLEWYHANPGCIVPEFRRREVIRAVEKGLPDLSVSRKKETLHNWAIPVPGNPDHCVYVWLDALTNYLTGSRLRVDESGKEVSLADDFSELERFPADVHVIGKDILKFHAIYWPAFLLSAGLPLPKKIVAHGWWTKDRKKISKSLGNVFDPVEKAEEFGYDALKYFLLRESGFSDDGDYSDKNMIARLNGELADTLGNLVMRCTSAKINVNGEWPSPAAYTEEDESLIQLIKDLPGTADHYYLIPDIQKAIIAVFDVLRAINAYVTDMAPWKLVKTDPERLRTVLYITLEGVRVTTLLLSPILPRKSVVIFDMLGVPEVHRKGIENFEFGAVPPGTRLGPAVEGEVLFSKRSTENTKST
Format: functional, Trypanosoma brucei brucei strain 927/4 GUTat10.1.

Test [3] concerns the target T1, Methionyl-tRNA synthetase, putative. In kind it is functional, Trypanosoma brucei brucei strain 927/4 GUTat10.1. The source holds these as a separate data set.
The nature of test [4]: Counterscreen for inhibitors of Trypanosoma brucei methionyl tRNA synthetase (MetRS): Luminescence-based cell-based high throughput dose response assay to identify compounds that are cytotoxic to Jurkat human T lymphocyte cells. In kind it is functional.
For test [5], the target named is Luciferin 4-monooxygenase (Photinus pyralis, UniProt P08659). In words: Counter Screen for Luciferase-based Assay Positives. [Related pubchem assays: 620, 618, 411 ].
The next test concerns HT-1080. In words: HT1080 cell viability loss – fluorescence readout (AID 620). Format: functional, cell-based. The settings on record: Homo sapiens.
Test [6] can be described thus: toxicity toward HEK293 cells – cell-based, dry powder samples, cytotoxicity control, dose response (AID 720567). Format: functional.
Test [7] in a line: viability loss in CEM21 cells – cell-based, plate reader, dry powder, cytotoxicity control, dose response (AID 687026). Format: functional.
The nature of test [8]: blockers of HIV-1 envelope-mediated cell-cell fusion – cherry-pick, dose response (AID 652057). In kind it is functional, cell-based.
A short description of test [9]: viability loss in CEM21 cells – cell-based, CellTiter-Glo luminescence, cherry-picked, cytotoxicity control for viral fusion inhibitor project, dose response (AID 652042).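 Further: potency for signal decrease meaning cytotoxicity.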 Format: functional. In general terms: In ATP-based viability assays light output follows the ATP content of the culture.
Test [10] is described as follows: inhibition of Env-driven cell fusion – HIV entry, plate reader, dry powder, dose response (AID 687023). Format: functional, cell-based.
Test [11] is described as follows: inhibitors of non-replicating M. tuberculosis, dose response, luciferase, dry powder (AID 651620). The settings on record: Mycobacterium tuberculosis. Format: functional.
Test [12] in a line: growth inhibition of replicating M. tuberculosis, dose response, counter-screen, dry powder, IC90 (AID 651617). The settings on record: Mycobacterium tuberculosis. In kind it is functional.
Test [13] is described as follows: inhibitors of non-replicating M. tuberculosis, dose response, luciferase, dry powder (AID 651619). In kind it is functional. The following applies: Mycobacterium tuberculosis.
Test [14] can be described thus: HeLa cell viability loss – plate reader, dry powder, cytotoxicity control, dose response (AID 651946). In kind it is functional, cell-based.
A short description of test [15]: HepG2 hepatoma cell viability loss – plate reader, dry powder, cytotoxicity control, dose response (AID 651947). In kind it is functional, cell-based.

Sequence of Luciferin 4-monooxygenase (P08659 whole entry): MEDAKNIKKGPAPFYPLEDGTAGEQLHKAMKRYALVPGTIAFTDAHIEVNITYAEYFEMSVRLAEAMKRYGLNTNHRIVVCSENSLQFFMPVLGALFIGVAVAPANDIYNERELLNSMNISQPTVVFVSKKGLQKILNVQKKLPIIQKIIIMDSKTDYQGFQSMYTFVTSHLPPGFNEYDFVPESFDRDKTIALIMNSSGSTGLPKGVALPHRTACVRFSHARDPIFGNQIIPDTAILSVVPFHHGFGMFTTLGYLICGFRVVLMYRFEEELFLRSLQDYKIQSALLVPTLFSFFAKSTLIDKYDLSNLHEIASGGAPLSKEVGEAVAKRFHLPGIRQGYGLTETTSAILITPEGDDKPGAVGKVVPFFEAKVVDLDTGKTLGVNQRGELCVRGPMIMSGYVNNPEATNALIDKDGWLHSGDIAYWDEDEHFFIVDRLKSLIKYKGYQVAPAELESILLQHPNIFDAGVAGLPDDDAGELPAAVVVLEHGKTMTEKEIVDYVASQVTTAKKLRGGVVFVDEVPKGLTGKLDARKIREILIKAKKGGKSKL

As to `O=C(NCc1nc2ccccc2[nH]1)C1=C[C@H](c2ccc3c(c2)OCO3)C[C@H](OCCCCO)O1`, the IC50 was > 83.3 µM (inactive) in test [1], 3.35 µM (active) in test [2], 1.84 µM (active) in test [3] and 83.3 µM (inactive) in test [4].
`Cc1cc(NC(=O)CSc2nc(-c3ccco3)cc(C(F)(F)F)n2)no1`: the EC50 in test [5] was 1.59 µM (active); with HT-1080, 6.41 µM (active). The AC50 in test [6] was > 30 µM (inactive).
As for `C[C@@H]1CN([C@H](C)CO)C(=O)c2cccc(NS(=O)(=O)c3ccc(Cl)cc3)c2O[C@@H]1CN(C)Cc1ccc(Cl)c(Cl)c1`, the concentration at half-maximal activity (AC50) in test [7] is 18.9 µM (active); in [8] it was 1.45 µM (active); in [9], 52.9 µM (active); in [10], 7.39 µM (active).
For `Clc1ccc(-c2nnc(SCc3ccccn3)o2)cc1`, the IC90 in test [11] was 4 µM (active); in [12] it was 62 µM (active); in test [13], 4 µM (active). The AC50 was > 52 µM (inactive) in test [14] and 27.8 µM (active) in test [15].
